IC50 data for eight compounds are collected here from patent US20250262222A1, “HETEROCYCLIC COMPOUNDS, COMPOSITIONS THEREOF, AND METHODS OF TREATMENT THEREWITH” (BeiGene Switzerland GmbH, priority 2022, published 2025).

In this assay the test system is pERK1/2(THR202/TYR204) level in SW620 cell line. As to the kind of experiment: KRAS G12V pERK assay. In kind it is cell-based. Particulars: Homo sapiens, SW-620; SW620 cells, 2 hrs compound treatment, HTRF. Here is the method: SW620 cell line was used in this study. Cells were maintained in RPMI 1640 supplemented with 10% fetal bovine serum (Thermo Fisher), 50 units/mL penicillin and streptomycin (Thermo Fisher) and kept at 37° C. in a humidified atmosphere of 5% CO2 in air. Cells were reinstated from frozen stocks that were laid down within 30 passages from the original cells purchased. 40000 cells per well were seeded into a 96-well plate and incubated overnight. Cells were treated with a 10-point dilution series. The final compound concentration is from 0 to 10 μM. After 2 hrs compound treatment, cells were lysed, and the pERK1/2(THR202/TYR204) level in the cell lysates was detected by HTRF kit (Cisbio). In brief, a total of 16 μL of cell lysate from each well of a 96-well plate was transferred to a 384-well white assay plate. Lysate from each well was incubated with 2 μL of Eu3+-cryptate (donor) labeled anti-phospho-ERK1/2 and 2 μL of D2 (acceptor) labeled anti-phospho-ERK1/2 antibodies (Cisbio) overnight in dark at room temperature. When donor and acceptor are in close proximity, excitation of the donor with laser triggers a Fluorescence Resonance Energy Transfer (FRET) towards the acceptor, which in turn fluoresces at 655 nm wavelength. FRET signals were measured using a PHERAstar FSX reader (BMG Labtech). IC50 determination was performed by fitting the curve of percent inhibition versus the log of the inhibitor concentration using Dotmatics.
A general note: Time-resolved FRET reads energy transfer from a long-lived donor to a nearby acceptor.

By IC50 is commonly meant the concentration that gives 50% inhibition. A high value points to a need for much substance. The compound `N#Cc1c(N)sc2c(F)ccc(-c3cc4c5c(nc(OC[C@@]67CCCN6C[C@H](F)C7)nc5c3F)N3CCOC[C@H]3CO4)c12` [Example 1, 2-amino-7-fluoro-4-((S)-4-fluoro-2-(((2R,7aS)-2-fluorotetrahydro-1H-pyrrolizin-7a(5H)-yl)methoxy)-8a,9,11,12-tetrahydro-8H-[1,4]oxazino[3′,4′:3,4][1,4]oxazepino[5,6,7-de]quinazolin-5-yl)benzo[b]thiophene-3-carbonitrile] yielded an IC50 of 161 nM.

Consider `C#Cc1c(F)ccc2cc(O)cc(-c3cc4c5c(nc(OC[C@@]67CCCN6C[C@H](F)C7)nc5c3F)N3CCOC[C@H]3CO4)c12` [Example 2, 5-ethynyl-6-fluoro-4-((S)-4-fluoro-2-(((2R,7aS)-2-fluorotetrahydro-1H-pyrrolizin-7a(5H)-yl)methoxy)-8a,9,11,12-tetrahydro-8H-[1,4]oxazino[3′,4′:3,4][1,4]oxazepino[5,6,7-de]quinazolin-5-yl)naphthalen-2-ol], for which half-maximal inhibition (IC50) was put at 178 nM.

`Nc1cc(Cl)c(C(F)(F)F)c(-c2nc3c4c(nc(OC[C@@]56CCCN5C[C@H](F)C6)nc4c2F)N2CCOC[C@H]2CO3)c1` [Example 3, 3-chloro-5-((S)-1-fluoro-11-(((2R,7aS)-2-fluorotetrahydro-1H-pyrrolizin-7a(5H)-yl)methoxy)-5a,6,8,9-tetrahydro-5H-4,7-dioxa-3,9a,10,12-tetraazabenzo[4,5]cyclohepta[1,2,3-de]naphthalen-2-yl)-4-(trifluoromethyl)aniline] displayed an IC50 of 133 nM.

`CCc1c(F)ccc2cc(O)cc(-c3nc4c5c(nc(OC[C@@]67CCCN6C[C@H](F)C7)nc5c3F)N3CCOC[C@H]3CO4)c12` [Example 5, 5-ethyl-6-fluoro-4-((S)-1-fluoro-11-(((2R,7aS)-2-fluorotetrahydro-1H-pyrrolizin-7a(5H)-yl)methoxy)-5a,6,8,9-tetrahydro-5H-4,7-dioxa-3,9a,10,12-tetraazabenzo[4,5]cyclohepta[1,2,3-de]naphthalen-2-yl)naphthalen-2-ol] yielded an IC50 of 22 nM.

`Oc1cc(Cl)c(C2CC2)c(-c2nc3c4c(nc(OC[C@@]56CCCN5C[C@H](F)C6)nc4c2F)N2CCOC[C@H]2CO3)c1` [Example 6, 3-chloro-4-cyclopropyl-5-((S)-1-fluoro-11-(((2R,7aS)-2-fluorotetrahydro-1H-pyrrolizin-7a(5H)-yl)methoxy)-5a,6,8,9-tetrahydro-5H-4,7-dioxa-3,9a,10,12-tetraazabenzo[4,5]cyclohepta[1,2,3-de]naphthalen-2-yl)phenol] yielded an IC50 of 118 nM.

In turn, `C#Cc1c(F)ccc2cc(O)cc(-c3nc4c5c(nc(OC[C@@H]6C[C@@H](F)CN6C)nc5c3F)N3CCOC[C@H]3CO4)c12` [Example 7, 5-ethynyl-6-fluoro-4-((S)-1-fluoro-11-(((2S,4R)-4-fluoro-1-methylpyrrolidin-2-yl)methoxy)-5a,6,8,9-tetrahydro-5H-4,7-dioxa-3,9a,10,12-tetraazabenzo[4,5]cyclohepta[1,2,3-de]naphthalen-2-yl)naphthalen-2-ol] came in with an IC50 of 72 nM.

`C#Cc1c(F)ccc2cc(O)cc(-c3nc4c5c(nc(OCC6(CN7CCOCC7)CC6)nc5c3F)N3CCOC[C@H]3CO4)c12` [Example 8, (S)-5-ethynyl-6-fluoro-4-(1-fluoro-11-((1-(morpholinomethyl)cyclopropyl)methoxy)-5a,6,8,9-tetrahydro-5H-4,7-dioxa-3,9a,10,12-tetraazabenzo[4,5]cyclohepta[1,2,3-de]naphthalen-2-yl)naphthalen-2-ol]: the midpoint of inhibition, the IC50, lay at 43 nM.

Consider `N#Cc1c(N)sc2c(F)ccc(-c3c(Cl)c4c5c(nc(OC[C@@]67CCCN6C[C@H](F)C7)nc5c3F)N3C5CCC3(COC5)CO4)c12` (stereo partly drawn) [Example 15, 2-amino-4-(11-chloro-9-fluoro-7-(((2R,7aS)-2-fluorotetrahydro-1H-pyrrolizin-7a(5H)-yl)methoxy)-3,4-dihydro-1H,13H-4,13a-ethano[1,4]oxazino[3′,4′:3,4][1,4]oxazepino[5,6,7-de]quinazolin-10-yl)-7-fluorobenzo[b]thiophene-3-carbonitrile], for which half-maximal inhibition (IC50) was put at 83 nM.
